Measurements published in the kinase profiling compilation of Christmann-Franck et al. (2016).

Legend:
Experiment in all cases: split-luciferase competition binding
[1] = target: AKT3 (human) (UniProt Q9Y243); conditions: compound 10.0 µM
[2] = target: STK32B (human) (UniProt Q9NY57); conditions: compound 10.0 µM
[3] = target: RPS6KA5 KD1 (human) (UniProt O75582); conditions: compound 10.0 µM
[4] = target: RPS6KA6 KD1 (human) (UniProt Q9UK32); conditions: compound 10.0 µM
[5] = target: DMPK (human) (UniProt Q09013); conditions: compound 10.0 µM
[6] = target: PRKCG (human) (UniProt P05129); conditions: compound 10.0 µM
[7] = target: RPS6KA3 KD1 (human) (UniProt P51812); conditions: compound 10.0 µM
[8] = target: PRKCD (human) (UniProt Q05655); conditions: compound 10.0 µM
[9] = target: AURKA (human) (UniProt O14965); conditions: compound 10.0 µM
[10] = target: SGK3 (human) (UniProt Q96BR1); conditions: compound 10.0 µM
[11] = target: PRKCH (human) (UniProt P24723); conditions: compound 10.0 µM
[12] = target: RPS6KA1 KD1 (human) (UniProt Q15418); conditions: compound 10.0 µM
[13] = target: PRKCQ (human) (UniProt Q04759); conditions: compound 10.0 µM
[14] = tested on: PRKACA (mouse); conditions: compound 10.0 µM; accession and sequence are those of the human protein
[15] = target: PRKX (human) (UniProt P51817); conditions: compound 10.0 µM
[16] = target: PRKCE (human) (UniProt Q02156); conditions: compound 10.0 µM
[17] = target: AURKB (human) (UniProt Q96GD4); conditions: compound 10.0 µM
[18] = target: AURKC (human) (UniProt Q9UQB9); conditions: compound 10.0 µM
[19] = target: RPS6KA4 KD1 (human) (UniProt O75676); conditions: compound 10.0 µM
[20] = target: SGK2 (human) (UniProt Q9HBY8); conditions: compound 10.0 µM
[21] = target: AKT1 (human) (UniProt P31749); conditions: compound 10.0 µM
[22] = target: PKN1 (human) (UniProt Q16512); conditions: compound 10.0 µM
[23] = target: AKT2 (human) (UniProt P31751); conditions: compound 10.0 µM
[24] = target: PRKCI (human) (UniProt P41743); conditions: compound 10.0 µM
[25] = target: PRKACB (human) (UniProt P22694); conditions: compound 10.0 µM
[26] = target: PDPK1 (human) (UniProt O15530); conditions: compound 10.0 µM
[27] = target: RPS6KA2 KD1 (human) (UniProt Q15349); conditions: compound 10.0 µM
Chain of RPS6KA2 KD1 (human) (Q15349 whole entry, looked up): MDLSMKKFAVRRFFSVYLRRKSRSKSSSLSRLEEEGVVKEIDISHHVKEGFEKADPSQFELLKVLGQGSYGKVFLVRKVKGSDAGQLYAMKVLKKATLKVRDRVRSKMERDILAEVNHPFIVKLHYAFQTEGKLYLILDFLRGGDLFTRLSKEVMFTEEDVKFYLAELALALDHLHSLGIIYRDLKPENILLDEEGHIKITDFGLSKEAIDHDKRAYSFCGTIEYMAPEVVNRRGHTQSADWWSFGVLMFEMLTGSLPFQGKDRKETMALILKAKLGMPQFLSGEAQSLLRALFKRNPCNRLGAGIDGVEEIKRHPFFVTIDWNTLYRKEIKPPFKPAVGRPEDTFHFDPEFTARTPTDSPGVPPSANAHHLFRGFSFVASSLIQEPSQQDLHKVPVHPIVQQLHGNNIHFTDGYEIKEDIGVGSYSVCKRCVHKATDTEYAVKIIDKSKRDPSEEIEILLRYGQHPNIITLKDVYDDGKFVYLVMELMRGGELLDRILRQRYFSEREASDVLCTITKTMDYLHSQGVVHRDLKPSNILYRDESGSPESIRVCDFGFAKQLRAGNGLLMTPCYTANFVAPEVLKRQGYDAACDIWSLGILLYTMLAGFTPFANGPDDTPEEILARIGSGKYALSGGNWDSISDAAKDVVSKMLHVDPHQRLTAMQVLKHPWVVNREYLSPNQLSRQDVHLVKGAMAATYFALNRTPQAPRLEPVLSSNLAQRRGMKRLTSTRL

Chain of AKT2 (human) (P31751 whole entry, looked up): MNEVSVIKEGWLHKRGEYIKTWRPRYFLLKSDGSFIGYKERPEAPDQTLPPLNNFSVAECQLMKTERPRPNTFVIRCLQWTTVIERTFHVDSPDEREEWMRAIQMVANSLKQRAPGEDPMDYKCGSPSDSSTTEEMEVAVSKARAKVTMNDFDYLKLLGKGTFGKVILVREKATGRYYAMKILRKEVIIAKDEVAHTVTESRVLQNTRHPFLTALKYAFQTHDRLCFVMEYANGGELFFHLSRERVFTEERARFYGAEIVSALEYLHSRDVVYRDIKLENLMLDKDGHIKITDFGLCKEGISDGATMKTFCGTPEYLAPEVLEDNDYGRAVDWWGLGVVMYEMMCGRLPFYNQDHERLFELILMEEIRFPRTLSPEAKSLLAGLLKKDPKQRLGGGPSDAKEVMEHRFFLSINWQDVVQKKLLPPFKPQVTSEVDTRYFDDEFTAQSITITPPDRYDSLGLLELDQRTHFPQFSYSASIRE
Chain of PRKCH (human) (P24723 whole entry, looked up): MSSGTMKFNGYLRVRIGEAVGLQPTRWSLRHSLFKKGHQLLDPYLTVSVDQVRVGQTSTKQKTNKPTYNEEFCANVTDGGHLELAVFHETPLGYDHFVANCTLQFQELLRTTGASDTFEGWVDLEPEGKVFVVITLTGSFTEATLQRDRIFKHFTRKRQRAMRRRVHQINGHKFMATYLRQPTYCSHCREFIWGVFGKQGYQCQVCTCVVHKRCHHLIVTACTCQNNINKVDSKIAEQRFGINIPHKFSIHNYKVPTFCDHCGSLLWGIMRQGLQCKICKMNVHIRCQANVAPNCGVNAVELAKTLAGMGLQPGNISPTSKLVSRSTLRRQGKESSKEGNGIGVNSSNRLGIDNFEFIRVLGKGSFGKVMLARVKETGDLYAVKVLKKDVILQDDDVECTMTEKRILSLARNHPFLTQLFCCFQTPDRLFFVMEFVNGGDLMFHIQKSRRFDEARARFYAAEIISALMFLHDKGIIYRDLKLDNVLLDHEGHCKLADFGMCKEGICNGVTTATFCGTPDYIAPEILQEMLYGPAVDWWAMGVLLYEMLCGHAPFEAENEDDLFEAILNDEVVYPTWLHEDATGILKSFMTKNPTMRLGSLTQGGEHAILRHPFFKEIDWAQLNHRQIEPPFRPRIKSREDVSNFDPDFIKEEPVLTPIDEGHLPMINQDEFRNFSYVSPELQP
Chain of AKT1 (human) (P31749 whole entry, looked up): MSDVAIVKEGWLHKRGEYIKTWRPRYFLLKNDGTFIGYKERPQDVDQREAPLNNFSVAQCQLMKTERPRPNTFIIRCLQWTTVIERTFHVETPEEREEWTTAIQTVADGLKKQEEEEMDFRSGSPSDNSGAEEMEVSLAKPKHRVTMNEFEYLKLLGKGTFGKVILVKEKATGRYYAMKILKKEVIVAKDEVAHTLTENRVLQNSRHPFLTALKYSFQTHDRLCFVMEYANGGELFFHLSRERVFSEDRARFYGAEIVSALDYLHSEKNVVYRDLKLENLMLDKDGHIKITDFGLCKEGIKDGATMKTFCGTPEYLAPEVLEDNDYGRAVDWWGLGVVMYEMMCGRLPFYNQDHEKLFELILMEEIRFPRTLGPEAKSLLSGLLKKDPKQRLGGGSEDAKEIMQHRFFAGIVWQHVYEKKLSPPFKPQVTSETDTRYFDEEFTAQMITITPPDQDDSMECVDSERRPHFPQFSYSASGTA
Chain of DMPK (human) (Q09013 whole entry, looked up): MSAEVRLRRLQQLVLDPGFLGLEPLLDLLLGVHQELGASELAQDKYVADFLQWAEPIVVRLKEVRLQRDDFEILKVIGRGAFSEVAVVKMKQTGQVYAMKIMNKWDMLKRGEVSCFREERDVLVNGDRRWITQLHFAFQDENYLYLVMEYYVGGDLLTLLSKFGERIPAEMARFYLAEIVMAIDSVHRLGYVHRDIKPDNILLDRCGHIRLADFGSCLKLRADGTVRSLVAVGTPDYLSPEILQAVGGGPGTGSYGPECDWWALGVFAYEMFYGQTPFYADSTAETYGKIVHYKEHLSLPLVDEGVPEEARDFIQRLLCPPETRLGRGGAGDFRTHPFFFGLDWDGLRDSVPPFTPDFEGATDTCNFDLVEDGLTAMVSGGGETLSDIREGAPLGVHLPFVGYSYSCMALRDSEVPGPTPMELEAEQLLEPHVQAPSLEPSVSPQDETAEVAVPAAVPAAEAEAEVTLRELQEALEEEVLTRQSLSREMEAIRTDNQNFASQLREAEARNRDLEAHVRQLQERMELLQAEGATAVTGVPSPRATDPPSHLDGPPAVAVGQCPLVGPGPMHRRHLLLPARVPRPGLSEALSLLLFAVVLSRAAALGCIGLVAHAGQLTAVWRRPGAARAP
Chain of RPS6KA5 KD1 (human) (O75582 whole entry, looked up): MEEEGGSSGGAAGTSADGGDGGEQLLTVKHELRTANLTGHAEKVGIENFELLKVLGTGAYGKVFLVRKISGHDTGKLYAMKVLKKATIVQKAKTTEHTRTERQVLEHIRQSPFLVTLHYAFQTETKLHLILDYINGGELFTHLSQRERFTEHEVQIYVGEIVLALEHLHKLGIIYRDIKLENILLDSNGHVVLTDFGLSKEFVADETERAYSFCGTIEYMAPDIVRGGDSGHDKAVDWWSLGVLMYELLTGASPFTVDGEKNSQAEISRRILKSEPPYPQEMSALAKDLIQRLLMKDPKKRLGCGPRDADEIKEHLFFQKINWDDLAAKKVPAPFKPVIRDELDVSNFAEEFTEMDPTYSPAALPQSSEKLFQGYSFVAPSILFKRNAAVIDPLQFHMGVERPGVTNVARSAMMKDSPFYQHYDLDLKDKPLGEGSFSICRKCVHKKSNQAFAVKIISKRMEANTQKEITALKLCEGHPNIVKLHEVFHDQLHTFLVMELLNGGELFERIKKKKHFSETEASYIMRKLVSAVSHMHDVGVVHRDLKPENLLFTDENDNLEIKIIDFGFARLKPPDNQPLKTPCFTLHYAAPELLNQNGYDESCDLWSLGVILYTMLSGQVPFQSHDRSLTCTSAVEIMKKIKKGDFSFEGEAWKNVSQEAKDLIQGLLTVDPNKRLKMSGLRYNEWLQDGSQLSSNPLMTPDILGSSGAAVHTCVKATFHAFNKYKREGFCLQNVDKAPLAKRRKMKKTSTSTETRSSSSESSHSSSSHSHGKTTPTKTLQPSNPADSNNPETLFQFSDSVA
Chain of RPS6KA1 KD1 (human) (Q15418 whole entry, looked up): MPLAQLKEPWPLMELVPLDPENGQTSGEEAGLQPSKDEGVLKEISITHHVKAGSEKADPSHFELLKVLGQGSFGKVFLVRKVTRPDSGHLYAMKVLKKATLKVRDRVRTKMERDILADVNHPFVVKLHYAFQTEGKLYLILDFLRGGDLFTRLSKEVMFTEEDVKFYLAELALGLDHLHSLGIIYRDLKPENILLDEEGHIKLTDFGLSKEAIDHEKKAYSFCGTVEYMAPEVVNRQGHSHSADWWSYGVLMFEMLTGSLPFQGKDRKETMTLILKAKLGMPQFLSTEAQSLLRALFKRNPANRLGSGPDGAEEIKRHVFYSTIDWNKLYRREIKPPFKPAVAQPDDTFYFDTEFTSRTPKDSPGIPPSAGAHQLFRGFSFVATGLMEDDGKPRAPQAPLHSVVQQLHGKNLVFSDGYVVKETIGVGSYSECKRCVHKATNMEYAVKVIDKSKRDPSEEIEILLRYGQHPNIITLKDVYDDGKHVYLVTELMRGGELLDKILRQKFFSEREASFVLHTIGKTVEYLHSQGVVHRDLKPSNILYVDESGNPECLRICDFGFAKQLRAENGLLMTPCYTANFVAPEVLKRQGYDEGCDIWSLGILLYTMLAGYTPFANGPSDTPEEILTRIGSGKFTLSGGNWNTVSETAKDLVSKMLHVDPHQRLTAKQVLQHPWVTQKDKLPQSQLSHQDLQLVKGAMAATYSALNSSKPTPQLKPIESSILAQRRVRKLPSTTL
Chain of AKT3 (human) (Q9Y243 whole entry, looked up): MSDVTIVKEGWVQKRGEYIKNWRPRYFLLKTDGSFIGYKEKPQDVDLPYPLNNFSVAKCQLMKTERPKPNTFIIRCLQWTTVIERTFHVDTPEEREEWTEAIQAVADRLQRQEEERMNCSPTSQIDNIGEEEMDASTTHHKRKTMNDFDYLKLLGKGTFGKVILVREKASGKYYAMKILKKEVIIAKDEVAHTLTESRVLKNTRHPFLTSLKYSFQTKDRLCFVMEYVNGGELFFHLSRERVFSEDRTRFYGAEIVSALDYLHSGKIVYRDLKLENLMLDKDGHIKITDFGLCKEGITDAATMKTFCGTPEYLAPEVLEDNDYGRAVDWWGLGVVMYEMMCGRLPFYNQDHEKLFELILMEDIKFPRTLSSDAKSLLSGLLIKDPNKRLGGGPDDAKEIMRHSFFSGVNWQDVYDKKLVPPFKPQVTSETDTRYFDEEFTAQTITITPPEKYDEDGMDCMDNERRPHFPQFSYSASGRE

| SMILES | inhibition [1] | inhibition [2] | inhibition [3] | inhibition [4] | inhibition [5] | inhibition [6] | inhibition [7] | inhibition [8] | inhibition [9] | inhibition [10] | inhibition [11] | inhibition [12] | inhibition [13] | inhibition [14] | inhibition [15] | inhibition [16] | inhibition [17] | inhibition [18] | inhibition [19] | inhibition [20] | further results |
| --- | --- | --- | --- | --- | --- | --- | --- | --- | --- | --- | --- | --- | --- | --- | --- | --- | --- | --- | --- | --- | --- |
| CC(C)[C@H](CO)Nc1nc(Nc2cc(N)cc(Cl)c2)c2ncn(C(C)C)c2n1 | 0% | 20% | 18% | 55% | 7% | 0% | 77% | 6% | 0% | 5% | 10% | 83% | 29% | 13% | 6% | 6% | 0% | 0% | 39% | 2% | inhibition [21]: 0%; inhibition [22]: 0%; inhibition [23]: 0%; inhibition [24]: 0%; inhibition [25]: 1%; inhibition [26]: 0%; inhibition [27]: 79% |
| Cc1cc2nc3c(=O)[nH]c(=O)nc-3n(C)c2cc1C=O | 0% | 18% | 8% | 1% | 0% | 9% | 0% | 31% | 5% | 0% | 8% | 0% | 5% | 11% | 2% | 13% | 3% | 12% | 0% | 3% | inhibition [21]: 24%; inhibition [22]: 0%; inhibition [23]: 0%; inhibition [24]: 0%; inhibition [25]: 21%; inhibition [26]: 0%; inhibition [27]: 8% |
| CC(C)[C@H](CO)Nc1nc(Nc2ccc(C(=O)O)c(Cl)c2)c2ncn(C(C)C)c2n1 | 0% | 9% | 0% | 50% | 0% | 0% | 66% | 5% | 3% | 3% | 2% | 81% | 11% | 21% | 3% | 2% | 15% | 7% | 44% | 0% | inhibition [21]: 0%; inhibition [22]: 0%; inhibition [23]: 0%; inhibition [24]: 0%; inhibition [25]: 3%; inhibition [26]: 0%; inhibition [27]: 79% |
| CC(C)(C)n1nc(-c2cccc3ccccc23)c2c(N)ncnc21 | 0% | 66% | 0% | 4% | 27% | 5% | 30% | 0% | 0% | 0% | 8% | 24% | 31% | 32% | 9% | 14% | 12% | 17% | 0% | 0% | inhibition [21]: 18%; inhibition [22]: 0%; inhibition [23]: 0%; inhibition [24]: 0%; inhibition [25]: 21%; inhibition [26]: 0%; inhibition [27]: 10% |
| CC(C)(C)n1nc(-c2ccc(Cl)cc2)c2c(N)ncnc21 | 0% | 43% | 1% | 7% | 26% | 0% | 6% | 0% | 0% | 0% | 4% | 7% | 0% | 30% | 0% | 0% | 0% | 6% | 0% | 0% | inhibition [21]: 0%; inhibition [22]: 0%; inhibition [23]: 0%; inhibition [24]: 0%; inhibition [25]: 8%; inhibition [26]: 0%; inhibition [27]: 4% |
| COc1cc2ncnc(Nc3ccc(Cl)cc3F)c2cc1OC | 0% | 14% | 0% | 0% | 0% | 2% | 8% | 0% | 7% | 7% | 11% | 0% | 7% | 2% | 7% | 2% | 9% | 18% | 2% | 7% | inhibition [21]: 0%; inhibition [22]: 1%; inhibition [23]: 0%; inhibition [24]: 0%; inhibition [25]: 4%; inhibition [26]: 0%; inhibition [27]: 0% |
| C/C(O)=C(\C#N)C(=O)Nc1cc(Br)ccc1Br | 0% | 0% | 0% | 0% | 0% | 0% | 0% | 0% | 0% | 0% | 0% | 0% | 0% | 7% | 0% | 0% | 0% | 0% | 0% | 0% | inhibition [21]: 0%; inhibition [22]: 0%; inhibition [23]: 0%; inhibition [24]: 0%; inhibition [25]: 0%; inhibition [26]: 0%; inhibition [27]: 0% |
| O=C1Nc2ccc(I)cc2/C1=C/c1cc(Br)c(O)c(Br)c1 | 0% | 0% | 13% | 19% | 11% | 5% | 12% | 2% | 0% | 0% | 10% | 23% | 0% | 9% | 11% | 10% | 26% | 0% | 4% | 10% | inhibition [21]: 19%; inhibition [22]: 4%; inhibition [23]: 0%; inhibition [24]: 0%; inhibition [25]: 11%; inhibition [26]: 0%; inhibition [27]: 14% |
| Brc1c(Br)c(Br)c2[nH]nnc2c1Br | 0% | 4% | 0% | 6% | 0% | 0% | 3% | 0% | 6% | 0% | 0% | 0% | 0% | 0% | 2% | 0% | 2% | 1% | 0% | 0% | inhibition [21]: 0%; inhibition [22]: 0%; inhibition [23]: 0%; inhibition [24]: 0%; inhibition [25]: 1%; inhibition [26]: 0%; inhibition [27]: 4% |
